Experimental data: PMC3608651, “A Broad Profile of Co-Dominant Epitopes Shapes the Peripheral Mycobacterium tuberculosis Specific CD8+ T-Cell Immune Response in South African Patients with Active Tuberculosis” (PLoS ONE, 2013)
Where two headings read alike, the source gives them in different places.

Assays:
Format in all cases: binding
HLA-B*58:01 = HLA-B*58:01 (Homo sapiens, UniProt P01889, A329T/C349S/D201E/D98Y/E176V/E187L/E204Q/E69T/G107R/I218V/I90N/K202T/L105A/L119I/N104I/N87E/Q89R/Q94S/R106L/R155S/R180L/R86G/S101N/S121R/S35A/S48A/T118I/V127L/V306I/V36M/Y140S/Y91M); details: duplicated experiments, positive binder >40%
HLA-A*30:02 = HLA-A*30:02 (Homo sapiens, UniProt P04439, D101N/D140H/D185E/E176R/F33S/G80R/H175R/K168Q/Q94H/R138E/R41S/V100E); details: duplicated experiments, positive binder >40%
HLA-A*02:01 = HLA-A*02:01 (Homo sapiens, UniProt P04439, D140Y/D185E/D98H/E176V/E277Q/G131W/G231S/I119V/I121R/I166T/I218V/L300P/L318F/N151K/N90K/P208A/P217A/Q86G/Q94H/R138H/R169H/T345S)
HLA-C*07:01 = HLA-C*07:01 (Homo sapiens, UniProt P10321, K90N/S123Y); details: duplicated experiments, positive binder >40%
HLA-B*07:02 = HLA-B*07:02 (Homo sapiens, UniProt P01889); details: percent relative the binding of positive control peptide […]; duplicated experiments; positive binder >40%
HLA-A*24:02 = HLA-A*24:02 (Homo sapiens, UniProt P04439, D101N/D140Y/D185E/E176V/E190D/F33S/G103R/G107R/I119L/I121M/I306V/K335N/L105A/L180Q/L300P/N151K/N90K/Q86E/Q94H/R106L/R138H/R89G/T104I/T345S/V100E/W191G/Y123F)
HLA-A*68:01 = HLA-A*68:01 (Homo sapiens, UniProt P04439, A269V/D185E/E176V/E277Q/E87N/F33Y/G231S/I121M/I166T/I218V/L180W/L300P/L318F/N151K/P208A/P217A/Q86R/R169H/T345S); details: duplicated experiments, positive binder >40%
HLA-A*30:01 = HLA-A*30:01 (Homo sapiens, UniProt P04439, D140H/D185E/E176W/F33S/G80R/H175R/K168Q/R138E/R41S); details: duplicated experiments, positive binder >40%
[1] = percent relative the binding of positive control peptide […]
[2] = percent relative the binding of positive control peptide […], plate-bound monomer 0.5 µg/ml, duplicated experiments, positive binder >40%
[3] = percent relative the binding of positive control peptide […], duplicated experiments, positive binder >40%

Substance | Bind B*58:01 (HLA-B*58:01; [1]) | Bind A*30:02 (HLA-A*30:02; [1]) | Bind A*02:01 (HLA-A*02:01; [2]) | Bind C*07:01 (HLA-C*07:01; [1]) | Bind B*07:02 (HLA-B*07:02) | Bind A*24:02 (HLA-A*24:02; [3]) | Bind A*68:01 (HLA-A*68:01; [1]) | Bind A*30:01 (HLA-A*30:01; [1]) | Bind A*24:02 (HLA-A*24:02) | Bind B*58:01 (HLA-B*58:01; percent relative the binding of positive control peptide IAMESIVIW) | Bind A*30:02 (HLA-A*30:02; percent relative the binding of positive control peptide KIQNFRVYY) | Bind A*02:01 (HLA-A*02:01; percent relative the binding of positive control peptide FLPSDFFPSV, plate-bound monomer 0.5 µg/ml, duplicated experiments, positive binder >40%) | Bind C*07:01 (HLA-C*07:01; percent relative the binding of positive control peptide KYFDEHYEY) | Bind A*24:02 (HLA-A*24:02; percent relative the binding of positive control peptide RYLKDQQLL, duplicated experiments, positive binder >40%) | Bind A*68:01 (HLA-A*68:01; percent relative the binding of positive control peptide KTGGPIYKR) | Bind A*30:01 (HLA-A*30:01; percent relative the binding of positive control peptide KTKDIVNGL) | Bind A*02:01 (HLA-A*02:01)
SPAVYLLDG | 0% | 0% | 0% | 1% | 0% | 49% | 0% | 0% |  |  |  |  |  |  |  |  | 
LLDGLRAQD | 0% | 140% | 63% | 0% | 0% | 0% | 16% | 8% |  |  |  |  |  |  |  |  | 
GGYKAADMW | 61% | 0% | 0% | 0% | 0% | 34% | 11% | 0% |  |  |  |  |  |  |  |  | 
YYQSGLSIV | 0% | 37% | 98% | 25% | 0% |  | 5% | 29% | 130 |  |  |  |  |  |  |  | 
PSSDPAW ER | 2% | 0% | 1% | 18% | 10% | 0% | 53% | 0% |  |  |  |  |  |  |  |  | 
GMGPSLIGL | 9% | 46% | 84% | 35% | 5% | 53% | 0% | 16% |  |  |  |  |  |  |  |  | 
AEFLENFVR | 10% | 0% | 12% | 13% | 0% | 1% | 63% | 0% |  |  |  |  |  |  |  |  | 
QQWNFAGIE [Rv3875_4–12] |  |  |  |  | 1% |  |  |  |  | 0% | 39% | 45% | 11% | 0% | 15% | 0% | 
SW EYW GAQL | 0% | 0% | 31% | 0% | 1% | 79% | 0% | 0% |  |  |  |  |  |  |  |  | 
AGGYKAADM | 0% | 85% | 0% | 0% | 0% | 0% | 0% | 0% |  |  |  |  |  |  |  |  | 
GNNSPAVYL | 0% | 0% | 0% | 51% | 0% | 6% | 3% | 0% |  |  |  |  |  |  |  |  | 
SLSALLDPS | 18% | 3% | 57% | 11% | 1% | 4% | 0% | 2% |  |  |  |  |  |  |  |  | 
AMILAAYHP | 64% | 33% |  | 1% | 1% | 0% | 0% | 0% |  |  |  |  |  |  |  |  | 34
PSQGMGPSL | 0% | 16% | 39% | 29% | 8% | 56% | 0% | 21% |  |  |  |  |  |  |  |  | 
VYCGNGTPN | 15% | 80% | 0% | 59% | 3% | 11% | 4% | 8% |  |  |  |  |  |  |  |  | 
IPKLVANNT | 16% | 0% | 0% | 0% | 41% | 0% | 0% | 5% |  |  |  |  |  |  |  |  | 
ELPQW LSAN | 0% | 0% | 15% | 0% | 16% | 56% | 31% | 20% |  |  |  |  |  |  |  |  | 
TSELPQW LS | 0% | 0% | 12% | 0% | 14% | 52% | 0% | 0% |  |  |  |  |  |  |  |  | 
DGLRAQDDY | 0% | 58% | 0% | 0% | 1% | 0% | 4% | 2% |  |  |  |  |  |  |  |  | 
YHPQQFIYA | 9% | 0% | 49% | 15% | 0% | 0% | 0% | 3% |  |  |  |  |  |  |  |  | 
